Reference: US10472663B2, “Procedure for the rapid determination of bacterial susceptibility to antibiotics that inhibit protein synthesis” (ABM TECHNOLOGIES, LLC, priority 2015, dated 2019)

Assays:
Type in all cases: cell-based
[1] = test system: Pseudomonas aeruginosa; assay: Variant Micromax assay of cell wall damage by meropenem after tobramycin (Example 5); settings: meropenem alone 0.2 μg/ml 60 min; both strains
Excerpt: As an exemplification of this principal, FIGS. 19-24 illustrates assays of two strains of Pseudomonas aeruginosa exponentially growing in Mueller-Hinton broth. Both strains were both susceptible to the β-lactam meropenem, which inhibits peptidoglycan synthesis. One strain was susceptible (FIGS. 19-21) and the other resistant (FIGS. 22-24) to the aminoglycoside tobramycin (inhibitor of protein synthesis).
For the purpose of rapidly distinguishing susceptible and resistant (i.e. non-susceptible) strains to tobramycin each strain was subjected to four treatments. A portion of each strain was incubated with tobramycin at 4 μg/ml for 75 min (FIGS. 19 and 22). The dose utilized, was indicated by the CLSI as the breakpoint of susceptibility to tobramycin. FIGS. 20 and 23 illustrate an assay from another portion of each strain, which was incubated with Meropenem at 0.2 μg/ml for 60 min. FIGS. 21 and 24, illustrate assays from still another portion of both strains which was incubated with tobramycin at 4 μg/ml for 15 min followed by meropenem at 0.2 μg/ml for 60 min, without removing the tobramycin. Still another portion of both strains was maintained without the addition of either antibiotic.
After incubation cells were processed using a variant Micromax technology to visualize the affectation or not of the cell wall based on the release or not of the nucleoids contained inside the bacteria. In the same manner described previously, samples from cells from the culture are immersed in an agarose microgel on a slide and incubated with a specific lysing solution that removes the cell wall only in those bacteria whose peptidoglycan was affected, thus releasing in the microgel the nucleoids contained inside. […] The processed bacteria in microgel are dried, stained with a high sensitive fluorochrome for DNA like SYBR Gold and visualized under fluorescence microscopy.

[2] = test system: Pseudomonas aeruginosa; assay: Variant Micromax assay of cell enlargement by ceftazidime after tobramycin (Example 7); settings: ceftazidime alone 0.5 μg/ml 60 minutes; both strains
Description: As an example, two strains of Pseudomonas aeruginosa exponentially growing in Mueller-Hinton broth were assayed. These strains were both susceptible to the β-lactam ceftazidime, which inhibits peptidoglycan synthesis. One strain was susceptible and the other resistant to the aminoglycoside tobramycin (an inhibitor of protein synthesis). For the purpose of rapidly distinguishing the susceptible and the resistant strain to tobramycin each strain was subjected to four treatments.
A portion of each strain was incubated with tobramycin at 4 μg/ml (the CLSI breakpoint of susceptibility) for 75 minutes. An assay of this portion is depicted at FIGS. 31 and 34. Another portion of each strain was incubated with ceftazidime at 0.5 μg/ml for 60 minutes. An assay of this portion is depicted at FIGS. 32 and 35. Still another portion of both strains was incubated with tobramycin at 4 μg/ml for 15 minutes followed by ceftazidime at 0.5 μg/ml for 60 minutes, without removing the tobramycin. Assays of these strains can be seen at FIGS. 33 and 36, respectively. A final portion of each strain was not treated with either antibiotic.
After incubation with the antibiotics, cells were processed using a variant Micromax technology to visualize the enlargement or not of the bacteria. Samples from each culture were immersed in an agarose microgel on a slide, dried, stained with a high sensitive fluorochrome for DNA like SYBR Gold and visualized under fluorescence microscopy to visualize cell shape and size.

[3] = test system: Escherichia coli; assay: Micromax assay of ciprofloxacin-induced DNA fragmentation after a protein synthesis inhibitor (Example 1)
Description: As an exemplification of the principals previously described, two strains of Escherichia coli exponentially growing in Mueller-Hinton broth were assayed (FIGS. 1-6). The first strain of Escherichia coli was a TG1 strain susceptible to both the aminoglycoside tobramycin (an inhibitor of protein synthesis) and the quinolone ciprofloxacin (an agent which induces DNA fragmentation by trapping of topoisomerases in DNA) (FIGS. 1-3). The second strain was a clinical isolate resistant to tobramycin and susceptible to ciprofloxacin (FIGS. 4-6). Four treatments were applied to each strain to rapidly distinguish the susceptible and the resistant strain to tobramycin.
One portion of both bacterial strains was incubated with tobramycin at 4 μg/ml for 40 minutes (FIGS. 1 and 4), a dosage indicated by the CLSI as the breakpoint of susceptibility to tobramycin in the standard antibiogram based on microdilution. Another portion of both strains was incubated with ciprofloxacin at 1 μg/ml for 30 min (FIGS. 2 and 5). Still another portion of both strains was incubated with tobramycin at 4 μg/ml for 10 min followed by ciprofloxacin at 1 μg/ml for 30 min, without removing the tobramycin (FIGS. 3 and 6). A final portion was left with no antibiotic.
After each incubation cells were processed using the variant of the Micromax technology to visualize the nucleoids, i.e. bacterial chromosomal DNA, in all the cells of the population. Cells from each culture were immersed in an agarose microgel on a slide and incubated with a specific lysing solution to remove the cell wall in all the cells and release in the microgel the nucleoids contained inside the bacteria. These are dried, stained with a high sensitive fluorochrome for DNA like SYBR Gold and visualized under fluorescence microscopy. FIGS. 1-6 depicts representative images captured under each of the conditions described below.
The above described methodology was employed to rapidly determine the susceptibility of 12 strains of E. coli to tobramycin. One portion of each bacterial strain was incubated with tobramycin at the susceptibility breakpoint dosage, 4 μg/ml, for 40 min. A portion of each strain was incubated with ciprofloxacin at 1 μg/ml for 30 min. Still another portion of each strain was incubated with tobramycin at 4 μg/ml for 10 min followed by ciprofloxacin at 1 μg/ml for 30 min, without removing the tobramycin. A final portion of each strain was left with no antibiotic. E. coli strains were identified as susceptible or not based on the levels of DNA fragmentation in the portion of each strain incubated with ciprofloxacin and the portion incubated with tobramycin and ciprofloxacin.
The principals exemplified in Example 1 were confirmed with the aminoglycoside amikacin. Briefly, a susceptible and resistant strain of E. coli were exposed to similar conditions to those described in Example 1, except that amikacin was utilized as the protein synthesis inhibiting antibiotic. Specifically, each was strain subjected to four treatments. One portion received no antibiotics, and another portion received only a quinolone, such as ciprofloxacin or norfloxacin to induce DNA fragmentation. Still another portion received the protein synthesis inhibiting antibiotic aminoglycoside amikacin, followed by the quinolone. Another portion received only amikacin. A final portion received neither antibiotic.
The principals exemplified in Example 1 were further confirmed with the aminoglycoside gentamicin. Briefly, the rapid test was performed on 15 isolated E. coli strains according to the methodology described above, except that gentamicinin was utilized as the protein synthesis inhibiting antibiotic. Suppressed DNA fragmentation were used to characterize bacterial susceptibility and those characterizations were verified with the standard antibiogram for gentamicin by microdilution. […]

[4] = test system: Escherichia coli; assay: Micromax assay of mitomycin C-induced DNA fragmentation after tobramycin (Example 2); settings: mitomycin C alone 50 μg/ml 60 min; both strains
Description: FIGS. 7-9 depict a TG1 strain susceptible to the aminoglycoside tobramycin, an inhibitor of protein synthesis, and mitomycin C, an agent which induces DNA damage. The other strain illustrated in FIGS. 10-12 was a clinical isolate resistant to tobramycin.
One portion of both bacterial strains was incubated with tobramycin at 4 μg/ml for 90 min (FIGS. 7 and 10), a dosage indicated by the CLSI as the breakpoint of susceptibility to tobramycin in the standard antibiogram based on microdilution. Another portion of both strains was incubated with mitomycin C at 50 μg/ml for 60 min (FIGS. 8 and 11). Still another portion of both strains was incubated with tobramycin at 4 μg/ml for 30 min followed by mitomycin C at 50 μg/ml for 60 min, without removing the tobramycin (FIGS. 9 and 12). A final portion was left with no antibiotic.
After incubation, cells were processed using a variant of the Micromax technology to visualize nucleoids, i.e. bacterial chromosomal DNA, in all the cells of the population. Samples from cells from the culture are immersed in an agarose microgel on a slide and incubated with a specific lysing solution to remove the cell wall in all the cells and release in the microgel the nucleoids contained inside the bacteria. These are dried, stained with a highly sensitive fluorochrome for DNA like SYBR Gold and visualized under fluorescence microscopy, Nucleoids from E. coli obtained using the Micromax assay are represented in FIGS. 7-12, FIGS. 7-9 correspond to a strain susceptible to tobramycin (TG1) and FIGS. 10-12 to a strain resistant to tobramycin.

[5] = test system: Escherichia coli; assay: Variant Micromax assay of cell enlargement by low-dose mitomycin C after tobramycin (Example 8); settings: mitomycin C alone 0.5 μg/ml 60 minutes; both strains
Description: As an example, two strains of Escherichia coli exponentially growing in Mueller-Hinton broth were incubated under four different conditions and then assayed. One strain was susceptible and the other resistant to the aminoglycoside tobramycin (an inhibitor of protein synthesis). For the purpose of rapidly distinguishing susceptible and non-susceptible strains to tobramycin each strain was incubated under four conditions.
A portion of each strain was incubated with tobramycin at 4 μg/ml for 90 minutes. As described previously, this dose is indicated by the CLSI as the breakpoint of susceptibility to tobramycin in the standard antibiogram based on microdilution. Another portion of both strains was incubated in Mitomycin C at 0.5 μg/ml for 60 minutes. Still another portion of each strain was incubated with tobramycin at 4 μg/ml for 30 minutes followed by mitomycin C at 0.5 μg/ml for 60 minutes, without removing the tobramycin. A final portion of both strains was not incubated with either antibiotic.
After the incubation, cells were processed using a variant Micromax technology to visualize any enlargement or not of the bacteria. Samples from cells from the culture were immersed in an agarose microgel on a slide, dried, stained with a highly sensitive fluorochrome for DNA like SYBR Gold and visualized under fluorescence microscopy to visualize cell shape and size. Images were similar those correspondent to the previous figure.

[6] = test system: Enterococcus faecalis; assay: Variant Micromax assay of cell lysis by lysozyme after erythromycin (Example 6)
Description: As an example, two strains of Enterococcus faecalis exponentially growing in Mueller-Hinton broth were incubated under four different conditions and then assayed. […] Each strain was subjected to four treatments for the purpose of rapidly distinguishing the susceptible and the resistant strain to erythromycin.
The dose was that indicated by the CLSI as the breakpoint of susceptibility to erythromycin in the standard antibiogram based on microdilution. Another portion of both strains was incubated with lysozyme 1 mg/ml, 10 min at 37° C. […]
After incubation with lysozyme, the cells were processed using a variant of the Micromax technology to visualize the nucleoids, i.e. spreading of the bacterial chromosomal DNA, in all the cells of the population. Samples from the cultures were immersed in an agarose microgel on a slide and incubated with a specific lysing solution to remove the cell wall in all the cells and release in the microgel the nucleoids contained inside the bacteria. These are dried, stained with a highly sensitive fluorochrome for DNA like SYBR Gold and visualized under fluorescence microscopy.

[7] = test system: Staphylococcus aureus; assay: Micromax assay of DNA fragmentation by DNase released with lysostaphin after azithromycin (Example 3); settings: lysostaphin alone 10 μg/ml 1 min; both strains
Description: In an exemplification of this principal, two strains of S. aureus growing in Mueller-Hinton agar with 5% sheep blood were assayed. One strain was susceptible to the macrolide azithromycin (an inhibitor of protein synthesis) (FIGS. 13-15) and the other strain was a clinical isolate resistant to azithromycin (FIGS. 16-18). The purpose was to rapidly distinguish susceptible and non-susceptible strains to azithromycin. Cultures were processed direct from standard growing agar plates 18-24 h and it was not necessary the cells being exponentially growing previously to the assay.
Each of these strain was subjected to four treatments. One portion of both strains was incubated with azithromycin at 2 μg/ml for 120 min; 2 μg/ml being indicated by the CLSI as the breakpoint of susceptibility to azithromycin. The cells were then lysed to release nucleoids and images of FIGS. 13 and 16 were generated. Another portion of each strain was incubated with lysostaphin at 10 μg/ml for 1 min. FIGS. 14 and 17 depict the nucleoids released in each strain for this treatment. Still another portion was incubated with Azithromycin at 2 μg/ml for 120 min followed by lysostaphin at 10 μg/ml for 1 min, without removing the azithromycin. The assays for these treatments can be seen at FIGS. 15 and 18. A final portion was left without either antibiotic.
After the incubation, the cells were processed using the variant of a Micromax technology to lyse cells with affected cell walls. As indicated previously, samples from cells from the culture are immersed in an agarose microgel on a slide and incubated with a specific lysing solution to remove the cell wall in those cells affected by lysostaphin and release in the microgel the nucleoids contained inside the bacteria. These are dried, stained with a highly sensitive fluorochrome for DNA like SYBR Gold and visualized under fluorescence microscopy.

[8] = rapid test, confirmed by microdilution antibiogram, 12 strains for tobramycin, 15 for gentamicin

Compound: C[C@@H](O)[C@H]1C(=O)N2C(C(=O)O)=C(S[C@@H]3CN[C@H](C(=O)N(C)C)C3)[C@H](C)[C@H]12 [meropenem]
- release of nucleoids (cell wall damage) [1]: releasing of nucleoids due to affectation of the cell wall

Compound: CC(C)(O/N=C(\C(=O)N[C@@H]1C(=O)N2C(C(=O)[O-])=C(C[n+]3ccccc3)CS[C@H]12)c1csc(N)n1)C(=O)O [ceftazidime]
- cell enlargement [2]: significant cell enlargement

Compound: NCC[C@H](O)C(=O)N[C@@H]1C[C@H](N)[C@@H](O[C@H]2O[C@H](CN)[C@@H](O)[C@H](O)[C@H]2O)[C@H](O)[C@H]1O[C@H]1O[C@H](CO)[C@@H](O)[C@H](N)[C@H]1O [amikacin]
- outcome of rapid susceptibility test with another protein synthesis inhibitor ([3]; inhibitor followed by a quinolone, susceptible and resistant E. coli): successfully determined

Compound: CO[C@@]12[C@H](COC(N)=O)C3=C(C(=O)C(C)=C(N)C3=O)N1C[C@@H]1N[C@@H]12 [mitomycin C]
- DNA fragmentation of nucleoids [4]: nucleoids with fragmented DNA in both strains
- cell enlargement [5]: significant cell enlargement

Compound: O=C(O)c1cn(C2CC2)c2cc(N3CCNCC3)c(F)cc2c1=O [ciprofloxacin]
- DNA fragmentation of nucleoids ([3]; ciprofloxacin alone 1 μg/ml 30 min, both strains): nucleoids with extensive fragmented DNA
- inhibitory response on lysis by lysozyme ([6]; incubation with quinolones instead of a protein synthesis inhibitor): has not been obtained

Compound: lysozyme
- partially lysed cells with spreading nucleoid fibers ([6]; lysozyme 1 mg/ml 10 min at 37° C. and lysing solution, no erythromycin, erythromycin-resistant strain): 97.36%
- lysed cells releasing nucleoid fibers ([6]; lysozyme 1 mg/ml 10 min at 37° C. and lysing solution, no erythromycin, erythromycin-susceptible strain): 92.13%

Compound: gentamicin
- E. coli strains identified as non-susceptible (resistant) [3, 8]: 5
- E. coli strains identified as susceptible [3, 8]: 10

Compound: lysostaphin
- DNA fragmentation of released nucleoids [7]: release of nucleoids with a large extent of DNA fragmentation
